The subject of test [1] is human naïve PSCs. Nature of the test: RT-PCR analysis for naïve pluripotency markers. The class given is cell-based. The conditions noted are these: ENHSM with and without P38i/JNKi, normalized to ACTIN, primed set as 1. The source says:
(§1) FIGS. 2A-I. Optimizations for enhanced human naive pluripotency conditions. A. W3G4 METTL3 TET-OFF cells were maintained in the presence of DOX for up to 4 passages in different conditions and stained for OCT4 to quantify percentage of cells that retained their pluripotency. […] B. Quantification of ΔPE-OCT4-GFP knock in naïve pluripotency reporter, in variety of primed (red) and naïve conditions (blue). Mean fluorescence intensity values (MFI) are indicated. […] C. Quantification of ΔPE-OCT4-GFP knock in naïve pluripotency reporter, in optimized naïve conditions and various concentrations of GSK3 inhibitor that leads to WNT activation (CHIR99021 is used as GSK3 inhibitor and is abbreviated as CHIR). […] D. Phase images showing how supplementation of 0.2% Geltrex (Life Technologies) in the growth media and SRCi additively enhance domed like morphology of human naïve PSCs in ENHSM conditions optimized herein. E. RT-PCR analysis for naïve pluripotency markers in ENHSM conditions with and without P38i/JNKi (BIRB0796). Values were normalized to ACTIN and values in Primed conditions were set as 1. […] F. W3G4 METTL3 TET-OFF cells were maintained in the presence of DOX for up to 4 passages in the optimized ENHSM conditions but without TNKi, in order to see if other molecules can substitute for TNKi after all optimizations were applies (e.g. adding of Geltrex, concentration optimization). […]

For test [2], the system named is human naïve PSCs. Put plainly: Pluripotency maintenance of naïve cells in ENHSM supplemented with CHIR. The class given is cell-based. The note with it: ENHSM plus CHIR; TGFB inhibition, depleted DNA and RNA methylation or no L-Glutamine. The source says:
The present inventors next aimed to define the signaling pathway downstream of Tankyrase inhibition facilitating human naïve PSCs stabilization. Bcat-KO ESCs had higher levels of Oct4-GFP in ENHSM condition, and upon removal of XAV939 GFP level was not decreased in KO, but in WT ESCs. A similar trend was shown in RT-PCR analysis. Supplementing naïve cells with WNT stimulator compromised delta-PE-OCT4-GFP levels, compromised their domed shape like morphology and their transcriptional profile. Using a tamoxifen induced Beta-Catenin-ERT transgene, the present inventors noted that delta-PE-OCT4-GFP signal and domed morphology were compromised upon tamoxifen stimulation. […] Similarly, while KO of TCF3 boosts mouse naïve pluripotency and alleviates the need for WNT stimulation, TCF3 KO ESCs still required WNTi and/or SRCi to maintain their naïve identity in humans. […] Collectively, these findings clearly establish WNT as a priming agent for human, but not mouse, naïve pluripotency and establish that KO of beta-catenin can substitute for Tankyrase inhibition.

Test [3] has as its system WIBR3 hESC line carrying ΔPE-OCT4-GFP reporter. Nature of the test: ΔPE-OCT4-GFP knock in naïve pluripotency reporter quantification. The class given is cell-based, human.
Text: as §1

The subject of the next test is primed human PSCs. Put plainly: Single cell cloning efficiency. Format: cell-based. The note with it: primed cells, ROCK inhibitor used.
The target in another test is T1, PKCζ (Homo sapiens, UniProt Q05513).
T1 sequence (Q05513 1-592): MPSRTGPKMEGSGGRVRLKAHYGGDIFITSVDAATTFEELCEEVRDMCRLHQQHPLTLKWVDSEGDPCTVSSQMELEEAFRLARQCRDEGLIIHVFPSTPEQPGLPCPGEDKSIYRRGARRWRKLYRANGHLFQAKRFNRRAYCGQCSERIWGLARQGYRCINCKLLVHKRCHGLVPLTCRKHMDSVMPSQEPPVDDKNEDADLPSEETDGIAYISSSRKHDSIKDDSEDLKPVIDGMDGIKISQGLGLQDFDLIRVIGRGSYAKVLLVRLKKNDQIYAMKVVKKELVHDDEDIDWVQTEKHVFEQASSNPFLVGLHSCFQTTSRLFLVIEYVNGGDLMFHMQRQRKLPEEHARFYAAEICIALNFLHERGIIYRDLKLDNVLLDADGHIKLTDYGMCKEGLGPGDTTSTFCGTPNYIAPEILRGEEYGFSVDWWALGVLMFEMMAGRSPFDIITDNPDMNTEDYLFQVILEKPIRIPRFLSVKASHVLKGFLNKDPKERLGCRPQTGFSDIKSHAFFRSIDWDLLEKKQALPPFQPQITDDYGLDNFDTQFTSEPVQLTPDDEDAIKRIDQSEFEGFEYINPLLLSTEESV
The conditions noted are these: cited from earlier work.

Test [4] relates to PKCγ. The note with it: fourth value of the list; read-out: IC50 PKCγ (second mention); cited from earlier work.
A further test has as its target T2, PKCμ (Homo sapiens, UniProt Q15139).
T2 sequence (Q15139 1-912): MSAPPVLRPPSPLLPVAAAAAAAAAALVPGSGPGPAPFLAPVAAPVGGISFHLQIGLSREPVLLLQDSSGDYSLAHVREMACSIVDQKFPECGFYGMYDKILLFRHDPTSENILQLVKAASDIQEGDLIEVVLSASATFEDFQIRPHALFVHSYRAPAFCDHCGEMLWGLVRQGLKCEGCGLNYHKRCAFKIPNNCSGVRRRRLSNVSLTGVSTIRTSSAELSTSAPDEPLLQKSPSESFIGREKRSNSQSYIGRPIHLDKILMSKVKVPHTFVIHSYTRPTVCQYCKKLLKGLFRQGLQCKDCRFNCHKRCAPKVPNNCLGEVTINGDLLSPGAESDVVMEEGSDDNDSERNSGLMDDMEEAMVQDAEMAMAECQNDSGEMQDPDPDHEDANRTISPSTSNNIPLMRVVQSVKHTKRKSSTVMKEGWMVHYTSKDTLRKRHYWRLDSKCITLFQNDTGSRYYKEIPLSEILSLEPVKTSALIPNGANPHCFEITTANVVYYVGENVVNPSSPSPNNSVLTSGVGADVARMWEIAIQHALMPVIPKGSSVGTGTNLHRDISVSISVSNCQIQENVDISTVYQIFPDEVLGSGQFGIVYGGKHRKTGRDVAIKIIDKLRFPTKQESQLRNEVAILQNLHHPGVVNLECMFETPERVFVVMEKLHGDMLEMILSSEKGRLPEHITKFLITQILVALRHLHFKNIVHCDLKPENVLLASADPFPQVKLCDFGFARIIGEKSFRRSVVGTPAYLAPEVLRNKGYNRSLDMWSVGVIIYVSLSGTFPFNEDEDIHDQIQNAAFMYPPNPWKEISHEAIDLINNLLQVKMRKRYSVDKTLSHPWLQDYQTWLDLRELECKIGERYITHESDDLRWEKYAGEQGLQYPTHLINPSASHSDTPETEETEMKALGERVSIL
The conditions noted are these: cited from earlier work.

Test [5] addresses PKCγ (Homo sapiens, UniProt P05129). The note with it: third value of the list; cited from earlier work.
The next test concerns the target PKCα (Homo sapiens, UniProt P17252). The note with it: cited from earlier work.
The target of another test is PKCβ (Homo sapiens, UniProt P05771). The note with it: cited from earlier work.
Sequence of PKCβ (P05771 whole entry, species assumed): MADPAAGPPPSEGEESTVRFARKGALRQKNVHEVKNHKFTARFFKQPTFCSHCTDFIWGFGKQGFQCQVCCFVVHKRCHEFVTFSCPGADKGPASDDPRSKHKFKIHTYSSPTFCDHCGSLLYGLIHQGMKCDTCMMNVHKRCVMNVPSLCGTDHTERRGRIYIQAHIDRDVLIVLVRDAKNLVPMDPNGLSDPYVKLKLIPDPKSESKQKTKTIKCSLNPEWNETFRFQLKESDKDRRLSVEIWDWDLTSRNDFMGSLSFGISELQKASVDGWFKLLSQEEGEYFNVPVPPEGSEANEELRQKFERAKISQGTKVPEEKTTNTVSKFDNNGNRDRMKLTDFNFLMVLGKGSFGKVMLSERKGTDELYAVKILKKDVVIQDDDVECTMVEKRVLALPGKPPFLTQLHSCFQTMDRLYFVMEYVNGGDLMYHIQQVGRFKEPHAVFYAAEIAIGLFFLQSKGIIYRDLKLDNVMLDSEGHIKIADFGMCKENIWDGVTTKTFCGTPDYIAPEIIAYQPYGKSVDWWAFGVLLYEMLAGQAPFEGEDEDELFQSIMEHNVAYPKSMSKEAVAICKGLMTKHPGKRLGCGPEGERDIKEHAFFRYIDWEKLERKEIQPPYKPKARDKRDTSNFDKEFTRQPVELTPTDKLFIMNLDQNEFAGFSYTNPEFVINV
The test system of test [6] is Tet-OFF-METTL3 hESCs (WIBR3, clone W3G4). Nature of the test: Pluripotency (OCT4+) maintenance of Tet-OFF-METTL3 hESCs in the presence of DOX. Format: cell-based, human. The conditions noted are these: individual small molecule supplemented to NHSM, Geltrex coated plates, no MEFs. The text has this:
FIGS. 1A-I Defining enhanced human naive conditions compatible with expanding METTL3 depleted PSCs. A. Strategy for generating human ESCs with TET-OFF regulated expression of METTL3 m^6A methyltransferase enzyme. B. Western blot analysis for correctly engineered human ESCs with TET-OFF METTL3 regulation, before and after DOX treatment. C. Representative images for human METTL3 TET-OFF engineered cells in different conditions with or without DOX addition. […] D. Scheme depicting strategy for conducting a screen for identifying a small molecule or cytokine additive to previously described human naïve NHSM conditions that allow maintain pluripotency in TET-OFF METTL3 human stem cells after adding DOX. E. W3G4 cells were maintained in the presence of DOX for up to 4 passages in different conditions and stained for OCT4 to quantify percentage of cells that retained their pluripotency. […] F. OCT4+ pluripotency maintenance in NHSM conditions supplemented with various TNK inhibitors and DOX to repress METTL3 expression. G. Quantification of ΔPE-OCT4-GFP knock in naïve pluripotency reporter, in variety of primed (red) and naïve conditions (blue). Mean fluorescence intensity values (MFI) are indicated. H. Quantification of ΔPE-OCT4-GFP knock in naïve pluripotency reporter in variety of conditions with various concentrations of ACTIVIN A recombinant cytokine. […] I. Representative phase contrast images in human ESCs expanded in NHSM+TNKi conditions showing their maintenance of pluripotent domed-like morphology even in the presence of FGFRi.
In order to identify culture conditions which capture human naïve PSC, the present inventors looked for agents which are capable of maintaining stem cells in a pluripotent state in the absence of defined epigenetic repressors. Human knock-in WIBR3 hESC lines with conditional inducible ablation expression of METTL3 were engineered (FIG. 1A). This was carried out by introducing an exogenous METTL3 transgene under the regulation of Tet-OFF promoter (Liao et al., 2015), followed by CRISPR/Cas9 mediated ablation of both endogenous human METTL3 alleles. Two resultant clones were validated for METTL3 expression only from the exogenous allele, which can be shut off by addition of DOX to the media (called Tet-OFF-METTL3 lines) (FIG. 1B).
The latter further support rewiring toward naïve pluripotency in NHSM conditions. […] Candidate molecules were tested for the ability to enrich NHSM conditions that allow Tet-OFF-METTL3 to be maintained on Geltrex coated plates in the presence of DOX.
NHSM conditions were supplemented with individual small molecules (FIG. 1D). […] IWR1 is a WNT inhibitor (WNTi) small molecule that stabilizes AXIN protein in the cytoplasm by inhibiting Tankyrase enzyme (abbreviated herein as TNK inhibitor—TNKi).

The values that follow come from patent publication US20210363495A1, “CULTURE MEDIA FOR PLURIPOTENT STEM CELLS” (Yeda Research and Development Co. Ltd., priority 2019, published 2021).

As to `Cc1ccc(-n2nc(C(C)(C)C)cc2NC(=O)Nc2ccc(OCCN3CCOCC3)c3ccccc23)cc1` [BIRB0796], in the test with human naïve PSCs [1], the “naïve pluripotency marker expression” value was “boosts expression of naïve pluripotency markers”.
With `Cc1c[nH]c(-c2cnc(NCCNc3ccc(C#N)cn3)nc2-c2ccc(Cl)cc2Cl)n1` [CHIR99021], the “ability to maintain pluripotency” value with human naïve PSCs [2] is given as “compromised their ability to maintain pluripotency”. In addition, the ΔPE-OCT4-GFP intensity entry in test [3] (optimized naïve conditions, various concentrations of GSK3 inhibitor) is recorded as “negatively influences human naive pluripotency”.
On to `C[C@@H](N)[C@H]1CC[C@H](C(=O)Nc2ccncc2)CC1` [Condition Y27632], for which the single cell cloning with primed human PSCs is 10-20%.
As for `COc1ccc2c(c1)c(C1=C(c3c[nH]c4ccccc34)C(=O)NC1=O)cn2CCCN(C)C` [Go6983], the IC50 at PKCζ was 60 nM; with PKCγ [4] it was 10 nM; at PKCμ, 20 µM; on PKCγ [5] it was 6 nM; on PKCα, 7 nM; at PKCβ, 7 nM.
In the case of `O=C(Nc1cccc2cccnc12)c1ccc(N2C(=O)[C@@H]3[C@H](C2=O)[C@@H]2C=C[C@H]3C2)cc1` [IWR1], the ΔPE-OCT4-GFP expression result in test [3] (TNKi supplemented to NHSM conditions) is listed as “boosts expression of GFP”. Besides, the “expansion of Tet-OFF-METTL3 on DOX” value in test [6] is given as “enabled the expansion of Tet-OFF-METTL3 on DOX with great homogeneity”.
